Laboratory results from US20210380988A1, “Reducing Prominin2-Mediated Resistance to Ferroptotic Cell Death” (University of Massachusetts, priority 2020, published 2021).

Experiments:
HSF1 = HSF1 mRNA, protein, S326 phosphorylation and nuclear localization in MCF10A cells; assay type: cell-based; settings: 10 uM KRIBB11 with 4HNE or RSL3, 60 minutes
MCF10A cells = test: Survival of adherent cells in response to GPX4 inhibition (crystal violet); assay type: cell-based
Procedure: (§1) Cell-based assays: Assays to assess survival in response to matrix detachment were performed as described (Brown C W, 2017). To assay survival in response to GPX4 inhibition, adherent cells in 96 well plates (1.0×10^4 per well) were treated with either DMSO, RSL3, ML210, FIN56 or erastin for 24 hrs with and without ferrostatin-1 or DFO. Subsequently, cells were fixed in 4% paraformaldehyde (Boston BioProducts), stained with crystal violet (Sigma) and read on a microplate reader (Beckman Colter) at absorbance 595. Absorbances were normalized to DMSO.

Hs578t cells = test: as above; assay type: cell-based; settings: Hs578t
Procedure: as §1

prominin2 = test: PROM2 mRNA (qPCR) and prominin2 protein (immunoblot) expression in MCF10A cells; assay type: cell-based; settings: MCF10A, 10 uM KRIBB11, 25 uM 4HNE or 5 uM RSL3, 60 minutes
Procedure: Biochemical experiments: Immunoblotting and qPCR were performed as described (Brown C W, 2017). Briefly, for immunoblotting, cell lysates were extracted using radioimmunoprecipitation assay (RIPA) buffer (Boston Bioproducts). Extracts were separated by SDS PAGE using the specified antibodies. Immunoprecipitation was performed on lysates isolated using NP-40 buffer (Boston Bioproducts). Lysates were pre-cleared prior to overnight incubation with the primary antibody and protein A agarose beads (Sigma-Aldrich). Immune complexes were separated by SDS PAGE and immunoblotted as described in figure legends. RNA was isolated from cells (BioBasic) and cDNA was generated using the All in One cDNA Synthesis SuperMix (BioScript Solutions). qPCR was performed using a SYBR green master mix (BioScript Solutions). Sequences for primers used were as follows: […]

SW620 = test: Viability with RSL3 and KRIBB11 co-treatment; assay type: cell-based; settings: SW620, 10 uM KRIBB11, 24 hours
Procedure: as §1

HCC1806 = test: Viability with RSL3 and KRIBB11 co-treatment; assay type: cell-based; settings: HCC1806, 10 uM KRIBB11, 24 hours
Procedure: as §1

SW480 = test: Viability with RSL3 and KRIBB11 co-treatment; assay type: cell-based; settings: SW480, 10 uM KRIBB11, 24 hours
Procedure: as §1

MDA-MB-231 cells = test: Survival of adherent cells in response to GPX4 inhibition (crystal violet); assay type: cell-based; settings: MDA-MB-231, prominin2 expression construct vs vector control
Procedure: as §1

cancer cell lines = settings: across hundreds of cancer cells lines; cited from earlier work

## CNc1ccc([N+](=O)[O-])c(Nc2ccc3[nH]ncc3c2)n1 [KRIBB11, N(2)-(1H-indazole-5-yl)-N(6)-methyl-3-nitropyridine-2,6-diamine]
HSF1
  expression, phosphorylation and nuclear localization of HSF1: neither the expression, phosphorylation nor nuclear localization of HSF1 was affected
MCF10A cells; otherwise resistant cells, cell line not named at b53, FIG. 16E: MCF10A
  death induced by RSL3, FIN56, erastin, or imidazole ketone erastin on chemical inhibition of HSF1: sensitized otherwise resistant cells to death
Hs578t cells; 10 uM KRIBB11, 24 hours
  ability to resist RSL3-induced ferroptosis when co-treated with RSL3 and KRIBB11: significantly reduced
prominin2
  upregulation of PROM2 mRNA and prominin2 protein expression in response to either 4HNE or RSL3: prevented the upregulation
SW620
  ability to resist RSL3-induced ferroptosis when co-treated with RSL3 and KRIBB11: significantly reduced
HCC1806
  ability to resist RSL3-induced ferroptosis when co-treated with RSL3 and KRIBB11: significantly reduced
SW480
  ability to resist RSL3-induced ferroptosis when co-treated with RSL3 and KRIBB11: significantly reduced

## Cc1onc(C(=O)N2CCN(C(c3ccc(Cl)cc3)c3ccc(Cl)cc3)CC2)c1[N+](=O)[O-] [ML210]
MCF10A cells; MCF10A, prominin2 siRNA 48 hours, compound 24 hrs
  sensitivity to compound in prominin2 knock-down cells compared to control cells: significant increase in sensitivity
MDA-MB-231 cells
  cell death in response to compound with exogenous prominin2 expression: sufficient to inhibit cell death
Hs578t cells; prominin2 siRNA 48 hours, compound 24 hrs
  sensitivity to compound in prominin2 knock-down cells compared to control cells: significant increase in sensitivity
Cancer cell lines
  correlation of high prominin2 expression with response to compound: significantly correlated with resistance
